Patent US12059413B2, “Methods of inhibiting viruses using compositions targeting TSG101-ubiquitin interaction” (The Research Foundation for the State University of New York, priority 2016, dated 2024)

Tests used:
[1] = Conversion of prazoles to sulfenamide / half-life; type: physicochemical
Excerpt: To measure sulfenamide formation: Dissolve each compound in water/buffer and measure the formation of colored compounds by UV-visible absorption, since the initial compound is colorless and the final compound (the sulfenamide dimer) is colored.

Tsg101 UEV domain = target: T1, Tsg101 UEV domain (Homo sapiens, UniProt Q99816); test: NMR / LC-MS binding of compound to Tsg101 UEV domain
T1 construct: Tsg101 UEV domain (residues 2-145) was encoded in a pET-28b vector; His6-TEV site (N, cleaved yes); made in house; host or cells: E. coli Rosetta 2 (DE3) pLysS
T1 sequence (Q99816 2-145): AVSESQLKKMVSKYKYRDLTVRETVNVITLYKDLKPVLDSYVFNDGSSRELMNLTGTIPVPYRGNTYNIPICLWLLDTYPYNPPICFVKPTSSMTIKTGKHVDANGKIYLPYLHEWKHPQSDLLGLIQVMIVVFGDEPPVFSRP
Procedure: N16 (20 mM solution, DMSO) was added to Tsg101 UEV domain in a 10:1 ratio (N16 excess).
For binding studies using NMR spectroscopy, the following complexes were made: Tsg101 UEV-N16, UEV-PTAP, UEV-Ub, UEV-N16-PTAP, and UEV-N16-Ub, all in Tsg101 NMR buffer: 20 mM potassium phosphate, 50 mM NaCl, pH 5.8, with UEV concentration of 200 μM.

Tsg101 = target: T2, Tsg101 (Homo sapiens, UniProt Q99816); test: NWU screening / in vitro binding assay
T2 sequence (Q99816 2-145 limits assumed): T1 sequence (Q99816 2-145)
Excerpt: Pantoprazole, Lansoprazole/Dexlansoprazole (dexlansoprazole is the active enantiomer of the racemic lansoprazole), and Rabeprazole were in the NWU screen but were not considered hits.

293T cells = test: Metabolic activity, WST-1 assay, 293T cells; type: cell-based; settings: metabolic measurements, WST-1 reagent
Procedure: FIG. 20A-C. N16 inhibition is virus-specific. A) N16 IC50 for Hela and 293T cells. […] Values were calculated by measuring metabolic activity (WST-1 Assay, Roche Applied Science) after cells were grown for 24 hr in N16. Data points represent the mean of 2 assays, 3 time points each for each cell line. […] Values in the absence or presence of N16 (50 uM) were 12% and 13%, respectively). C) N16 effect on EGF-stimulated EFGR degradation. Cells maintained for 24 hr in media containing DMSO alone or DMSO and N16 were stimulated with EGF ligand for a 90 min period and then assessed for EGFR steady-state level by Western analysis. EGFR levels for unstimulated and stimulated sample pairs are shown. A) n=2; B) n=2; C) n=2.
FIG. 27A-C. Effect of N-Acetyl Cysteine (NAC) on N16-mediated inhibition of VLP production and intracellular Gag accumulation. […] A concentration of 3 mM NAC was therefore used to test the effect of the antioxidative reagent on the N16 inhibitory effect. N16 (0, 12, 25, 50, 75, and 100 uM) was added 8.5 hr prior to transfection with pNL4-3ΔEnv. Cells were harvested 16 hr later. […] C) Quantitative analysis. n=2.
Cells were grown in 96-well trays for 24 hr with increasing levels of drug, metabolic activity was measured using WST-1colorimetric assay (Roche), and IC50 values were calculated (Prism 6, Graph Pad Software Inc.).

proteasome = proteasome (Homo sapiens, UniProt P20618+P28074); settings: Gelman et al.; cited from earlier work

Cc1c(OCC(F)(F)F)ccnc1C[S+]([O-])c1nc2ccccc2[nH]1 (racemic) [Lansoprazole]
slowness of sulfenamide conversion relative to Rabeprazole [1]: ~2 ×
residue bound in Tsg101 UEV (NMR and fluorescence perturbances) (Tsg101 UEV domain): bind to residue C73
binding in the NWU screening assay (Tsg101): bound weakly

CC(=O)N[C@@H](CS)C(=O)O [NAC, N-Acetyl Cysteine]
concentration up to which 293T cells were robust (293T cells): at least 4 mM

CC(C)C[C@H](NC(=O)[C@H](Cc1ccccc1)NC(=O)c1cnccn1)B(O)O [bortezomib]
concentration giving proteasome inhibition, previous studies (proteasome): ≥ 5 nM
